By pEC50 is commonly meant −log10 of the EC50, conventionally taken in molar units. A low value points to a large EC50.

For the experiment, the target named is F508del-CFTR (Homo sapiens, UniProt P13569, DEL508-508). Briefly: fluorescence membrane potential assay in HEK-293 cells expressing F508del-CFTR, […] °C, forskolin activated. It counts as cell-based.

pEC50: −log10 of the molar value.

Sequence of F508del-CFTR (P13569 with tags, fused parts or gaps DEL508-508): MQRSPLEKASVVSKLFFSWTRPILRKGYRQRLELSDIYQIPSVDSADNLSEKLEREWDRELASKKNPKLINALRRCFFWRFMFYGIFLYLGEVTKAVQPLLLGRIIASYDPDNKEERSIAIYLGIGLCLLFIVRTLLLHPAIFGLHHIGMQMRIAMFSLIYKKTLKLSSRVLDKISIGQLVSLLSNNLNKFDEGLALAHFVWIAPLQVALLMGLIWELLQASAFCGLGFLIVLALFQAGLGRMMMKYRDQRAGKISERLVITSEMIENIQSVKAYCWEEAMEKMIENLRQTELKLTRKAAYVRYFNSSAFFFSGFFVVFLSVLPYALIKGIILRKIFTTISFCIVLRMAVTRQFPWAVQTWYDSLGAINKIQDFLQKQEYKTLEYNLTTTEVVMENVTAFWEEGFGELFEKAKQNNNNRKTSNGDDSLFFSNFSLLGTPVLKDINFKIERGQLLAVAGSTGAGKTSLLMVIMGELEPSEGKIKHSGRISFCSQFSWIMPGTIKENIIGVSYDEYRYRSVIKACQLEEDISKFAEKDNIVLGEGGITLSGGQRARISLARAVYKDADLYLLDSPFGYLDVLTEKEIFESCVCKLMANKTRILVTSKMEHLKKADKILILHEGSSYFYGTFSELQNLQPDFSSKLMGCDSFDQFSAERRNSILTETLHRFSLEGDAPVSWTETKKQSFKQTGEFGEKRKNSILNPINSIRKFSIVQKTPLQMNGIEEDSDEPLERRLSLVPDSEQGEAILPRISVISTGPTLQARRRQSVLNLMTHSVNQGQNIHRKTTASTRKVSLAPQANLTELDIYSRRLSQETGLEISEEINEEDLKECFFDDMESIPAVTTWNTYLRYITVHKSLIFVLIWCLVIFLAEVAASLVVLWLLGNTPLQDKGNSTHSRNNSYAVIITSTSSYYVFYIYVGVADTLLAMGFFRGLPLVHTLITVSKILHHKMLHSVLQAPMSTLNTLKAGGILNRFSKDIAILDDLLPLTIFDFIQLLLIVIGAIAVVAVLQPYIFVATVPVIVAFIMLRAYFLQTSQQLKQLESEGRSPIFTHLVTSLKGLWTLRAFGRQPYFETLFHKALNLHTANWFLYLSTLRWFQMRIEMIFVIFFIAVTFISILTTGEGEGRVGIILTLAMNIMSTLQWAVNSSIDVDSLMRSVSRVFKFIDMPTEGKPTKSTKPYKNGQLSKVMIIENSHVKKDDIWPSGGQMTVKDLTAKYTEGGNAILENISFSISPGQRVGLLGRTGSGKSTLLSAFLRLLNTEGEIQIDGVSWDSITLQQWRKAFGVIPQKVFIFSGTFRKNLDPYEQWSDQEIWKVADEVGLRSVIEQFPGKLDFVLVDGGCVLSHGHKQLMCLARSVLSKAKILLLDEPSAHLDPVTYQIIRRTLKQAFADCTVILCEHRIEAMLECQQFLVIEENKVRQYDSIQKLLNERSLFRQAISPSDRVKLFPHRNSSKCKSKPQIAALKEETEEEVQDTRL

As to `CC(C)(C)c1cc(C(C)(C)C)c(NC(=O)c2c[nH]c3ccccc3c2=O)cc1O` [VX-770], the pEC50 was 6.42.

The record behind these values is article PMC11234710, “Comparison of a novel potentiator of CFTR channel activity to ivacaftor in ameliorating mucostasis caused by cigarette smoke in primary human bronchial airway epithelial cells” (Respiratory Research, 2024).
